From ChEMBL document CHEMBL6134778, “Spiro-Azetidine Oxindoles as Long-Acting Injectables for Pre-Exposure Prophylaxis against Respiratory Syncytial Virus Infections” (J Med Chem, 2024)
Values after ≈ are worked out from the molar mass of the structure shown.

How the values were obtained:
[1] = Bioavailability in Sprague-Dawley rat assessed as dose released at 50 mg/kg, IM measured over 12 weeks by LC-MS/MS analysis; type: ADME, organism-based; details: in vivo
[2] = Clearance in Sprague-Dawley rat at 2.5 mg/kg, iv by LC-MS/MS analysis; type: ADME, organism-based; details: in vivo
[3] = Thermodynamic solubility in aqueous buffer at pH 7 incubated for 24 hrs by UPLC analysis; type: physicochemical; details: read-out: Therm_solubility
[4] = Volume of distribution at steady state in Sprague-Dawley rat at 2.5 mg/kg, iv by LC-MS/MS analysis; type: ADME, organism-based; details: in vivo, read-out: Vdss
[5] = system: Respiratory syncytial virus; assay: Antiviral activity against RSV A2 harboring eGFP infected in human HeLa cells assessed as reduction in virus replication measured after 3 days by laser microscopy; type: functional, organism-based; details: 72 h
[6] = Bioavailability in Beagle dog assessed as dose released at 20 mg/kg, IM by LC-MS/MS analysis; type: ADME, organism-based, Canis lupus familiaris; details: in vivo
[7] = system: HeLa; assay: Cytotoxicity against human HeLa cells assessed as reduction in cell viability at highest concentration measured after 3 days by ATPlite assay; type: toxicity, cell-based; details: 72 h, time 3 day
[8] = Volume of distribution at steady state in Beagle dog at 0.25 mg/kg, iv by LC-MS/MS analysis; type: ADME, organism-based, Canis lupus familiaris; details: in vivo, read-out: Vdss
[9] = Equilibrium solubility of the compound […] at pH 7 measured after 3 days by LC-MS/MS analysis; type: physicochemical; details: time 3 day
[10] = system: Rattus norvegicus; assay: Particle size for the 50th percentile of the cumulative volume distribution in Sprague-Dawley rat at 50 mg/kg, IM […]; type: ADME, organism-based; details: in vivo
[11] = system: Respiratory syncytial virus; assay: Antiviral activity against RSV A2 harboring eGFP infected in human HeLa cells assessed as reduction in virus replication by measuring 3X protein-adjusted effective concentration for 90% inhibition measured after 3 days in presence of human serum albumin and alpha(1)-acid glycoprotein by laser microscopy; type: functional; details: time 3 day
[12] = Chromatographic hydrophobicity index, logD of the compound at pH 7.4 by UPLC analysis; type: physicochemical; details: buffer
[13] = Intrinsic clearance in human hepatocytes assessed per million cells at 1 uM measured after 180 mins by LC-MS/MS analysis; type: ADME, cell-based, Hepatocyte; details: read-out: CLH
[14] = system: Canis familiaris; assay: Release rate constant in Beagle dog at 20 mg/kg, IM by LC-MS/MS analysis; type: ADME, organism-based, Canis lupus familiaris; details: in vivo
[15] = Clearance in Beagle dog at 0.25 mg/kg, iv by LC-MS/MS analysis; type: ADME, organism-based, Canis lupus familiaris; details: in vivo
[16] = system: Canis familiaris; assay: Particle size for the 50th percentile of the cumulative volume distribution in Beagle dog at 20 mg/kg, IM […]; type: ADME, organism-based, Canis lupus familiaris; details: in vivo
[17] = system: Rattus norvegicus; assay: Release rate constant in Sprague-Dawley rat at 50 mg/kg, IM measured over 12 weeks by LC-MS/MS analysis; type: ADME, organism-based; details: in vivo, 2016 h
[18] = Intrinsic clearance in human liver microsomes assessed per mg protein at 1 uM measured after 60 mins in presence of NADPH by LC-MS/MS analysis; type: ADME, Microsome; details: read-out: CLH
[19] = system: Respiratory syncytial virus; assay: Antiviral activity against RSV B Wash/18537 harboring eGFP infected in human HeLa cells assessed as reduction in virus replication measured after 3 days by laser microscopy; type: functional, organism-based; details: B Wash/18537, HeLa, 72 h
[20] = system: Respiratory syncytial virus; assay: Antiviral activity against RSV B/03-034613 harboring eGFP infected in human HeLa cells assessed as reduction in virus replication measured after 3 days by laser microscopy; type: functional, organism-based; details: B/03-034613, HeLa, 72 h
[21] = system: Respiratory syncytial virus; assay: Antiviral activity against RSV A/18-001989 harboring eGFP infected in human HeLa cells assessed as reduction in virus replication measured after 3 days by laser microscopy; type: functional, organism-based; details: A/18-001989, HeLa, 72 h
[22] = system: Respiratory syncytial virus; assay: Antiviral activity against RSV B/14-006938 harboring eGFP infected in human HeLa cells assessed as reduction in virus replication measured after 3 days by laser microscopy; type: functional, organism-based; details: B/14-006938, HeLa, 72 h
[23] = system: Respiratory syncytial virus; assay: Antiviral activity against RSV B/05-036549 harboring eGFP infected in human HeLa cells assessed as reduction in virus replication measured after 3 days by laser microscopy; type: functional, organism-based; details: B/05-036549, HeLa, 72 h
[24] = system: Respiratory syncytial virus; assay: Antiviral activity against RSV A/11-014288 harboring eGFP infected in human HeLa cells assessed as reduction in virus replication measured after 3 days by laser microscopy; type: functional, organism-based; details: A/11-014288, HeLa, 72 h
[25] = Intrinsic clearance in human hepatocytes assessed per million cells measured after 6 hrs using tritiated compound by LC-MS/MS analysis; type: ADME, cell-based, Hepatocyte; details: read-out: CLH
[26] = system: Respiratory syncytial virus; assay: Antiviral activity against RSV A/12-049454 harboring eGFP infected in human HeLa cells assessed as reduction in virus replication measured after 3 days by laser microscopy; type: functional, organism-based; details: A/12-049454, HeLa, 72 h
[27] = system: Respiratory syncytial virus; assay: Antiviral activity against RSV A Long infected in PO dosed cotton rat assessed as reduction in viral titer in BALF administered twice day from 1 day prior to infection to 3 days post-infection by plaque assay; type: functional, organism-based; details: human respiratory syncytial virus
[28] = system: Respiratory syncytial virus; assay: Antiviral activity against RSV A2 infected in PO or IM dosed BALB/c mouse assessed as reduction in viral titer in BALF by plaque assay; type: functional, organism-based; details: human respiratory syncytial virus
[29] = system: Respiratory syncytial virus; assay: Antiviral activity against RSV rgRSV224 (A2-GFP) harboring eGFP infected in human HeLa cells assessed as reduction in virus replication measured after 3 days by laser microscopy; type: functional, organism-based; details: 72 h
[30] = system: Respiratory syncytial virus; assay: Antiviral activity against RSV B/17-058221 harboring eGFP infected in human HeLa cells assessed as reduction in virus replication measured after 3 days by laser microscopy; type: functional, organism-based; details: B/17-058221, HeLa, 72 h
[31] = system: Respiratory syncytial virus; assay: Antiviral activity against RSV A Long harboring eGFP infected in human HeLa cells assessed as reduction in virus replication measured after 3 days by laser microscopy; type: functional, organism-based; details: 72 h
[32] = system: Respiratory syncytial virus; assay: Antiviral activity against RSV A2 harboring V76A/Y117H/N517I/L172Q mutant infected in human HeLa cells assessed as reduction in virus replication measured after 3 days by laser microscopy; type: functional, organism-based; details: 72 h
[33] = system: Respiratory syncytial virus; assay: Antiviral activity against RSV B/18-002094 harboring eGFP infected in human HeLa cells assessed as reduction in virus replication measured after 3 days by laser microscopy; type: functional, organism-based; details: B/18-002094, HeLa, 72 h
[34] = system: Respiratory syncytial virus; assay: Antiviral activity against RSV A/07-041911 harboring eGFP infected in human HeLa cells assessed as reduction in virus replication measured after 3 days by laser microscopy; type: functional, organism-based; details: A/07-041911, HeLa, 72 h
[35] = system: Respiratory syncytial virus; assay: Antiviral activity against RSV B/11-050703 harboring eGFP infected in human HeLa cells assessed as reduction in virus replication measured after 3 days by laser microscopy; type: functional, organism-based; details: B/11-050703, HeLa, 72 h
[36] = system: Respiratory syncytial virus; assay: Antiviral activity against RSV pSynk-A2F (A2-mKate2) harboring eGFP infected in human HeLa cells assessed as reduction in virus replication measured after 3 days by laser microscopy; type: functional, organism-based; details: 72 h
[37] = Clearance in Sprague-Dawley rat at 1 mg/kg, iv by LC-MS/MS analysis; type: ADME, organism-based; details: in vivo
[38] = system: Respiratory syncytial virus; assay: Antiviral activity against RSV A/13-000323 harboring eGFP infected in human HeLa cells assessed as reduction in virus replication measured after 3 days by laser microscopy; type: functional, organism-based; details: A/13-000323, HeLa, 72 h
[39] = system: Respiratory syncytial virus; assay: Antiviral activity against RSV A Memphis 37 harboring eGFP infected in human HeLa cells assessed as reduction in virus replication measured after 3 days by laser microscopy; type: functional, organism-based; details: A Memphis 37, HeLa, 72 h
[40] = system: Respiratory syncytial virus; assay: Antiviral activity against RSV B pSynk-18537F (18537-mKate2) harboring eGFP infected in human HeLa cells assessed as reduction in virus replication measured after 3 days by laser microscopy; type: functional, organism-based; details: 72 h
[41] = Volume of distribution at steady state in Sprague-Dawley rat at 1 mg/kg, iv by LC-MS/MS analysis; type: ADME, organism-based; details: in vivo, read-out: Vdss

## CC(C)NC(=O)N1CC2(C1)C(=O)N(Cc1nc3cc(Cl)ccc3n1CCCC#N)c1ccccc12
[1]
  bioavailability: 21%
[2]
  clearance: 21 mL/min/kg
[3]
  solubility thermodynamic at 24 h: < 0.1 µg/mL
[4]
  Vd: 3.2 L/kg
[5]
  EC50: 0.58 nM
[6]
  bioavailability: 51%
[7]
  Activity: Non-toxic
[8]
  Vd: 0.56 L/kg
[9]
  solubility at 72 h: < 0.25 µM
[10]
  Median particle size (D50): 5.48 um
[11]
  protein-adjusted EC90: 0.06 µg/mL
[12]
  CHI: 2.37
[13]
  hepatocyte CLint at 1 µM: 1.5 µL/min/1e6 cells
[14]
  Ka: 0.001 h⁻¹
[15]
  clearance: 4.9 mL/min/kg
[16]
  Particle size (D50): 5.34 um
[17]
  Ka: 0 h⁻¹
[18]
  microsomal CLint at 1 µM: < 7.7 µL/min/mg

## CS(=O)(=O)N1CC2(C1)C(=O)N(Cc1nc3cc(Cl)ccc3n1CCCC(F)(F)F)c1ccccc12
[19]
  EC50: 1.6 nM
[1]
  bioavailability: 52%
[20]
  EC50: 1.6 nM
[21]
  EC50: 1.6 nM
[3]
  solubility thermodynamic at 24 h: < 0.1 µg/mL
[22]
  EC50: 1.6 nM
[23]
  EC50: 1.6 nM
[24]
  EC50: 1.6 nM
[25]
  hepatocyte CLint: < 1.2 µL/min/1e6 cells
[5]
  EC50: 0.78 nM
[26]
  EC50: 1.6 nM
[27]
  EC50: 0.026 µg/mL (≈ 0.0493 µM)
[6]
  bioavailability: 50%
[28]
  EC50: 0.088 µg/mL (≈ 0.167 µM)
[7]
  Activity: Non-toxic
[8]
  Vd: 5.3 L/kg
[29]
  EC50: 1.6 nM
[30]
  EC50: 1.6 nM
[9]
  solubility at 72 h: < 0.04 µM
[31]
  EC50: 1.6 nM
[10]
  Median particle size (D50): 6.38 um
[11]
  protein-adjusted EC90: 0.034 µg/mL
[32]
  EC50: 1.6 nM
[12]
  CHI: 3.39
[33]
  EC50: 1.6 nM
[34]
  EC50: 1.6 nM
[35]
  EC50: 1.6 nM
[14]
  Ka: 0 h⁻¹
[36]
  EC50: 1.6 nM
[37]
  clearance: 18.5 mL/min/kg
[38]
  EC50: 1.6 nM
[15]
  clearance: 0.46 mL/min/kg
[39]
  EC50: 1.6 nM
[40]
  EC50: 1.6 nM
[41]
  Vd: 4.43 L/kg
[16]
  Particle size (D50): 5.06 um
[17]
  Ka: 0 h⁻¹
[18]
  microsomal CLint at 1 µM: < 7.7 µL/min/mg
